ChEMBL document CHEMBL4507326, “Data for DCP probe TP-030-2” (2021)

Legend:
[1] = target: Mitogen-activated protein kinase 3 (Homo sapiens, UniProt P27361); assay: ERK1(MAP3LGY1) Takeda global kinase panel
[2] = target: 5-hydroxytryptamine receptor 7 (Homo sapiens) (UniProt P34969); details: Compound concentration 10.0 uM
[3] = target: Serine/threonine-protein kinase ULK2 (Homo sapiens, UniProt Q8IYT8); assay: ULK2(ULK2LGY1) Takeda global kinase panel
[4] = target: Serine/threonine-protein kinase N1 (Homo sapiens, UniProt Q16512); assay: PKN1 [PRK1(PKN1LGY1)] Takeda global kinase panel
[5] = target: Proto-oncogene tyrosine-protein kinase ROS (Homo sapiens, UniProt P08922); assay: Ros(ROS1PHY1) Takeda global kinase panel
[6] = target: Epidermal growth factor receptor (Homo sapiens, UniProt P00533); assay: Inhibition of Epidermal Growth Factor (EGF) at 10 µM in the Eurofins-Panlabs radioligand binding assay (Eurofins_assay_225510); details: Compound concentration 10.0 uM
[7] = target: Ribosomal protein S6 kinase alpha-6 (Homo sapiens, UniProt Q9UK32); assay: RSK4(R6A6LGF1) Takeda global kinase panel
[8] = target: Phosphatidylinositol 4,5-bisphosphate 3-kinase catalytic subunit delta isoform (Homo sapiens, UniProt O00329); assay: PI3KCD(PI3DCGRK) Takeda global kinase panel
[9] = target: Serine/threonine-protein kinase Nek2 (Homo sapiens, UniProt P51955); assay: Nek2(NEK2LHFA) Takeda global kinase panel
[10] = target: D(3) dopamine receptor (Homo sapiens) (UniProt P35462); details: Compound concentration 10.0 uM
[11] = target: Serine/threonine-protein kinase ULK1 (Homo sapiens, UniProt O75385); assay: ULK1(ULK1LGF1) Takeda global kinase panel
[12] = target: Eukaryotic translation initiation factor 2-alpha kinase 1 (Homo sapiens, UniProt Q9BQI3); assay: HRI(EIK1CGQ1) Takeda global kinase panel
[13] = target: ALK tyrosine kinase receptor (Homo sapiens, UniProt Q9UM73); assay: ALK(ALK1LGY1) Takeda global kinase panel
[14] = target: Tyrosine-protein kinase ABL1 (Homo sapiens, UniProt P00519); assay: Abl(ABL1IHY1) Takeda global kinase panel
[15] = target: Mitogen-activated protein kinase kinase kinase 20 (Homo sapiens, UniProt Q9NYL2); assay: ZAK(ZAK1LGY1) Takeda global kinase panel
[16] = target: cAMP-dependent protein kinase catalytic subunit PRKX (Homo sapiens, UniProt P51817); assay: PRKX(PRKXLGH5) Takeda global kinase panel
[17] = target: NUAK family SNF1-like kinase 1 (Homo sapiens, UniProt O60285); assay: NuaK1(NUA1LGF5) Takeda global kinase panel
[18] = target: Prostaglandin E2 receptor EP4 subtype (Homo sapiens) (UniProt P35408); assay: Inhibition of Prostanoid EP4 at 10 µM in the Eurofins-Panlabs radioligand binding assay (Eurofins_assay_268420); parameters: ligand concentration 1 nM; details: Compound concentration 10.0 uM
[19] = target: LIM domain kinase 2 (Homo sapiens, UniProt P53671); assay: LIMK2(LIM2LGV1) Takeda global kinase panel
[20] = target: Beta-2 adrenergic receptor (Homo sapiens) (UniProt P07550); details: Compound concentration 10.0 uM
[21] = target: Tyrosine-protein kinase CSK (Homo sapiens, UniProt P41240); assay: CSK(CSK1LGF1) Takeda global kinase panel
[22] = target: Sodium-dependent serotonin transporter (Homo sapiens) (UniProt P31645); details: Compound concentration 10.0 uM
[23] = GPCRScan assay: inhibition of GABA/PBR; parameters: species or system Rattus norvegicus; radioligand conc. used [nm] 0.3 – 2.0, parental cells brain tissue
[24] = target: Phosphorylase b kinase gamma catalytic chain, skeletal muscle/heart isoform (Homo sapiens, UniProt Q16816); assay: PhKgamma1(PHG1LHY1) Takeda global kinase panel
[25] = organism: Rattus norvegicus; details: Compound concentration 10.0 uM
[26] = target: Protein kinase C delta type (Homo sapiens, UniProt Q05655); assay: PKCdelta(PRKDPFP1) Takeda global kinase panel
[27] = target: Leukocyte tyrosine kinase receptor (Homo sapiens, UniProt P29376); assay: LTK(LTK1LGF1) Takeda global kinase panel
[28] = target: Glutamate NMDA receptor (Rattus norvegicus) (UniProt P35439+Q00959+Q00960+Q00961+Q62645+Q8VHN2+Q9R1M7); details: Compound concentration 10.0 uM
[29] = target: cAMP-dependent protein kinase catalytic subunit alpha (Homo sapiens, UniProt P17612); assay: PKAalpha(PRCALGH1) Takeda global kinase panel
[30] = target: 5-hydroxytryptamine receptor 2B (Homo sapiens) (UniProt P41595); details: Compound concentration 10.0 uM
[31] = target: Mitogen-activated protein kinase kinase kinase 9 (Homo sapiens, UniProt P80192); assay: MLK1(M3K9LGF1) Takeda global kinase panel
[32] = target: Tyrosine-protein kinase FRK (Homo sapiens, UniProt P42685); assay: FRK(FRK1LGF1) Takeda global kinase panel
[33] = target: Activin receptor type-1-like (Homo sapiens, UniProt P37023); assay: ALK1(ACL1LGF1) Takeda global kinase panel
[34] = target: Cyclin-dependent kinase 18 (Homo sapiens, UniProt Q07002); assay: PCTAIRE3(CD18SGS1) Takeda global kinase panel
[35] = target: Beta-1 adrenergic receptor (Homo sapiens) (UniProt P08588); details: Compound concentration 10.0 uM
[36] = target: Ephrin type-B receptor 3 (Homo sapiens, UniProt P54753); assay: EphB3(EPB3LGRJ) Takeda global kinase panel
[37] = target: T1, 5-hydroxytryptamine receptor 2A (Homo sapiens, UniProt P28223); details: Compound concentration 10.0 uM
[38] = target: Histamine H3 receptor (Homo sapiens) (UniProt Q9Y5N1); details: Compound concentration 10.0 uM
[39] = target: Melatonin receptor type 1A (Homo sapiens) (UniProt P48039); assay: Inhibition of Melatonin MT1 at 10 µM in the Eurofins-Panlabs radioligand binding assay (Eurofins_assay_251600); parameters: ligand concentration 0.05 nM; details: Compound concentration 10.0 uM
[40] = target: Ribosomal protein S6 kinase alpha-1 (Homo sapiens, UniProt Q15418); assay: RSK1 [p90RSK(R6A2CGE1)] Takeda global kinase panel
[41] = target: T1, 5-hydroxytryptamine receptor 2A; assay: GPCRScan assay: inhibition of 5-HT2A; parameters: radioligand conc. used [nm] 1.2 – 2.4, parental cells HEKT
[42] = target: Myotonin-protein kinase (Homo sapiens, UniProt Q09013); assay: DMPK(DMPKLGF1) Takeda global kinase panel
[43] = target: Ephrin type-A receptor 5 (Homo sapiens, UniProt P54756); assay: EphA5(EPA5MGF1) Takeda global kinase panel
[44] = target: Fibroblast growth factor receptor 4 (Homo sapiens, UniProt P22455); assay: FGFR4(FGF4LGF1) Takeda global kinase panel
[45] = target: Maternal embryonic leucine zipper kinase (Homo sapiens, UniProt Q14680); assay: MELK(MELKLGF1) Takeda global kinase panel

T1 sequence (P28223 whole entry): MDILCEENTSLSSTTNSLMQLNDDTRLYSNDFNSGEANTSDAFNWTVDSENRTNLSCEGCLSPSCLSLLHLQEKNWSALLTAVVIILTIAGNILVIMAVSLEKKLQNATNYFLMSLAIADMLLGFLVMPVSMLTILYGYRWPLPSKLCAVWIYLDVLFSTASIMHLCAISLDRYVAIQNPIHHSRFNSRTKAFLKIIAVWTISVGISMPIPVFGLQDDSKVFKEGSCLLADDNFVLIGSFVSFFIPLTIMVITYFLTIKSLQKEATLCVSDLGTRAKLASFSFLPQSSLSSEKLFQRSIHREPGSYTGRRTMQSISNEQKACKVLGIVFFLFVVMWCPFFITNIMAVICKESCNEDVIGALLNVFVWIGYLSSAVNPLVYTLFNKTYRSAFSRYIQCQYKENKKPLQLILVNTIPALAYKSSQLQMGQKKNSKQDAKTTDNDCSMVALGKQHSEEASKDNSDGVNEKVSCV
Chain of Fibroblast growth factor receptor 4 (P22455 whole entry): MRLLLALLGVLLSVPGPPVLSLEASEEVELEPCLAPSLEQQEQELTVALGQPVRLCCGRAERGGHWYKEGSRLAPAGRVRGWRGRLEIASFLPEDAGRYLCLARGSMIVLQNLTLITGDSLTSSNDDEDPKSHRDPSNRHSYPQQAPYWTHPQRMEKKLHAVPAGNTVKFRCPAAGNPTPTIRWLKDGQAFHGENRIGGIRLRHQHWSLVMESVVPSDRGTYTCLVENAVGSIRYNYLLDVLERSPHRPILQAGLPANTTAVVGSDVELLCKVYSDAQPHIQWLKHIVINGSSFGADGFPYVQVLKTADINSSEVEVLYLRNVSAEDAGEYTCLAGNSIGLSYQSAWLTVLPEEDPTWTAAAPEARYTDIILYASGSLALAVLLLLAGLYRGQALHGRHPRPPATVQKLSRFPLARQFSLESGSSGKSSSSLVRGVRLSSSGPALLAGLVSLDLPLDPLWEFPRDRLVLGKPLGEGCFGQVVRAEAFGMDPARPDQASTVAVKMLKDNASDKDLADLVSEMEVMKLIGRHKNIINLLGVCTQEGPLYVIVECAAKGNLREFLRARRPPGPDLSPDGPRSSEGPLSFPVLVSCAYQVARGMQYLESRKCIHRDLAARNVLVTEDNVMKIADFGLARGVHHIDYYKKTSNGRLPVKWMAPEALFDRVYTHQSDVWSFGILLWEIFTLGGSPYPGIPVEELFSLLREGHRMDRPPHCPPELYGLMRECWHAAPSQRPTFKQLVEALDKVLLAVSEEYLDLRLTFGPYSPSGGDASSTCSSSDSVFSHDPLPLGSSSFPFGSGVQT
Chain of Serine/threonine-protein kinase Nek2 (P51955 whole entry): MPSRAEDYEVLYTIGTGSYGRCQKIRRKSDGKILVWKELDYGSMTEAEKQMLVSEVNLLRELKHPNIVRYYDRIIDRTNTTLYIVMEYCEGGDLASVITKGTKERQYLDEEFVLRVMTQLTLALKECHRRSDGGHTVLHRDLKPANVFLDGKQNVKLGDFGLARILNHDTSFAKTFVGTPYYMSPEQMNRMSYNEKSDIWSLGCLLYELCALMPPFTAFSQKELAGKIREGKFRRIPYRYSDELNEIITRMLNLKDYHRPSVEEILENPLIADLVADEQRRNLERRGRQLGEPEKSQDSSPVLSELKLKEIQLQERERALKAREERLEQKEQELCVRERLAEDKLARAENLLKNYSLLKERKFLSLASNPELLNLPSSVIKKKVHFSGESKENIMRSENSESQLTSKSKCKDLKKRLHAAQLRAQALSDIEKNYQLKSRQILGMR
Chain of Ribosomal protein S6 kinase alpha-1 (Q15418 whole entry): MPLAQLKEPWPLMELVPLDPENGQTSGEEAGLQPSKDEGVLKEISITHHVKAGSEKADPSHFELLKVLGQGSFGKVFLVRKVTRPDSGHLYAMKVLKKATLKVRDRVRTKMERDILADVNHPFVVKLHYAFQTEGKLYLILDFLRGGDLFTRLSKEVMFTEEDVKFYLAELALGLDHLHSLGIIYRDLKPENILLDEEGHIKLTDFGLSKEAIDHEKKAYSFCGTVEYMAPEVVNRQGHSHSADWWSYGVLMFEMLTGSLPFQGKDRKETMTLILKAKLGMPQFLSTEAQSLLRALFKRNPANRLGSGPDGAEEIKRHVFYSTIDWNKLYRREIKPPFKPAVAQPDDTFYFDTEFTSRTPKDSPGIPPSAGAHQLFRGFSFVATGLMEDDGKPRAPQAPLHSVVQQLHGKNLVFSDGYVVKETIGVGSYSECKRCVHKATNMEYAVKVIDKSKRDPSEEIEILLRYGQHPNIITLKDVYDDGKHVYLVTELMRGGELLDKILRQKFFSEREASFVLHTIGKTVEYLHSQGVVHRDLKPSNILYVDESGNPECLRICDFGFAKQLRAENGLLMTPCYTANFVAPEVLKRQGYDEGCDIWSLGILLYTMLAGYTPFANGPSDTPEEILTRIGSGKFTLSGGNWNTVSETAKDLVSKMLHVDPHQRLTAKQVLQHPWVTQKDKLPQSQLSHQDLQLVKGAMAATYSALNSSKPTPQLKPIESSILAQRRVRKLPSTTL
Chain of Tyrosine-protein kinase FRK (P42685 whole entry): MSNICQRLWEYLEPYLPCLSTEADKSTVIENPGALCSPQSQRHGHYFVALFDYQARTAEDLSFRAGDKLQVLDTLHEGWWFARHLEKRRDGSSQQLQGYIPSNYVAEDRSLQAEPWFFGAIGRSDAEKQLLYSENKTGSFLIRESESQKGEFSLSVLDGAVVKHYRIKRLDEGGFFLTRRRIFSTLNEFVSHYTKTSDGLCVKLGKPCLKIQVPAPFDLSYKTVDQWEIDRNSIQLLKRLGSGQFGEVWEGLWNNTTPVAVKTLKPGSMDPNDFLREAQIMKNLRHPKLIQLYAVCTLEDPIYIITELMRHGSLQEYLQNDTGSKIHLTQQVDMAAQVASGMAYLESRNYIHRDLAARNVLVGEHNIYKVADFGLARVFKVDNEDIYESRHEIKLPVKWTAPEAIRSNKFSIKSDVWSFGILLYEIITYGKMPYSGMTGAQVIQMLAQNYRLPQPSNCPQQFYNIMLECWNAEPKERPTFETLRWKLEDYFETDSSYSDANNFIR
Chain of Myotonin-protein kinase (Q09013 whole entry): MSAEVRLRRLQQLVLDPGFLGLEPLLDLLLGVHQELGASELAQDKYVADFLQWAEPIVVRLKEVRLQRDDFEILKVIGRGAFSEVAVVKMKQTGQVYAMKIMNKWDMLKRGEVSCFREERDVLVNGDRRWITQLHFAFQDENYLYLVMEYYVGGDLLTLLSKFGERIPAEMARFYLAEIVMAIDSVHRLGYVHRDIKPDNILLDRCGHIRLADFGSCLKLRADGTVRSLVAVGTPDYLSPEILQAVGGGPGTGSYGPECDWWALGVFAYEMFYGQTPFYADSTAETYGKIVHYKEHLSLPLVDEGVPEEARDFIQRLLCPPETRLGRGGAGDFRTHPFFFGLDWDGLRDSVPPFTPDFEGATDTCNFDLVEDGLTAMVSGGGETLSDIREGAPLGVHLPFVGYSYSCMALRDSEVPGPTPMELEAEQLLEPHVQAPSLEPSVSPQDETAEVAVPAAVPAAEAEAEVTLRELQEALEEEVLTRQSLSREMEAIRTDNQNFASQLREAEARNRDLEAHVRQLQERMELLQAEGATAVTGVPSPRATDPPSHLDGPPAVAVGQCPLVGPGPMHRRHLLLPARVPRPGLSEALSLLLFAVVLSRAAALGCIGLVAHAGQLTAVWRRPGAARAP
Chain of Mitogen-activated protein kinase 3 (P27361 whole entry): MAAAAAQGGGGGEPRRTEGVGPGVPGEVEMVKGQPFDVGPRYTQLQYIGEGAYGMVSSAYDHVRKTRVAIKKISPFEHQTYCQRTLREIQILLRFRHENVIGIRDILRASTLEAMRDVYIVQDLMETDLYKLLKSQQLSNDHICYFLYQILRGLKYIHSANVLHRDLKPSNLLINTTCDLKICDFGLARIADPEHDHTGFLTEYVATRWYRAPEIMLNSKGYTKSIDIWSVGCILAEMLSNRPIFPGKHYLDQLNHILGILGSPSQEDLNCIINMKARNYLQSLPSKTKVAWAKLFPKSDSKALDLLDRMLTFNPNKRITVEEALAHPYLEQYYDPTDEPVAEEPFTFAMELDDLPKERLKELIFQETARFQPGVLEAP
Chain of Serine/threonine-protein kinase ULK2 (Q8IYT8 whole entry): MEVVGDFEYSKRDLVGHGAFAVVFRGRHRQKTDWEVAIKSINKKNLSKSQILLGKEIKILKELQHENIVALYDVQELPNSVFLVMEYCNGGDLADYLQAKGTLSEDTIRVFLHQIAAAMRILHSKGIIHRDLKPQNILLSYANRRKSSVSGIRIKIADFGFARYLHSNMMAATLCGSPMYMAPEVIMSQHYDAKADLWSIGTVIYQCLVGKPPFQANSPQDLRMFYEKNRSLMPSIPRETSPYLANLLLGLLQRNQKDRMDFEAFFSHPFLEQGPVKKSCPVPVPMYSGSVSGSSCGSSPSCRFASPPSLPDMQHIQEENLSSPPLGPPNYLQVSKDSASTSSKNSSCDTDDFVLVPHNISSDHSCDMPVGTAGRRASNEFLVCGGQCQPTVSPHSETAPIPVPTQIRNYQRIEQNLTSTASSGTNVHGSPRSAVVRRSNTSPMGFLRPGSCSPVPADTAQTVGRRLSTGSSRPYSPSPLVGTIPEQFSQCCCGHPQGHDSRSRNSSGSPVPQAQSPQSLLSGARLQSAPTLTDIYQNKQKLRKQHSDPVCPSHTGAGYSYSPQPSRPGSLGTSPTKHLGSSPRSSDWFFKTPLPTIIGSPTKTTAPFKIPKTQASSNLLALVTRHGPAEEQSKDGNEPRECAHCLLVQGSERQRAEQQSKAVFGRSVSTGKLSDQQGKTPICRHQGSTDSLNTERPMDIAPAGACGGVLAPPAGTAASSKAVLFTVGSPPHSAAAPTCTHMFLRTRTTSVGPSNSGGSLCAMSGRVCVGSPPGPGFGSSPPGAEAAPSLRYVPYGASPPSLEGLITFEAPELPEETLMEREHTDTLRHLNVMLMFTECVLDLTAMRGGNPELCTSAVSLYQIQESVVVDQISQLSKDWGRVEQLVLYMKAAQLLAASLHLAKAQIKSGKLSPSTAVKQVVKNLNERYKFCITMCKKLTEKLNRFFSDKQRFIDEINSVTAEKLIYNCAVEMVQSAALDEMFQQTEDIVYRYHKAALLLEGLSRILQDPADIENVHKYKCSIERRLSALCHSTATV

In the case of `CN1C(=O)[C@@H](N2CCc3c(nn(Cc4ccccc4)c3Br)C2=O)COc2ccccc21` [TP-030-2], the IC50 [1] is reported as 1000 nM, the inhibition [2] is reported as 5.69% and the IC50 [3] is reported as 1000 nM. The IC50 [4] was 1000 nM, the IC50 [5] was 1000 nM and the inhibition [6] was 2%. For the same compound, the IC50 [7] was 1000 nM, the IC50 [8] was 1000 nM and the IC50 [9] was 1000 nM. It also gave an inhibition [10] of 14%, an IC50 [11] of 1000 nM and an IC50 [12] of 1000 nM. The IC50 [13] was 1000 nM, the IC50 [14] was 1000 nM and the IC50 [15] was 1000 nM. It also gave an IC50 [16] of 1000 nM, an IC50 [17] of 1000 nM and an inhibition [18] of -2%. It also gave an IC50 [19] of 1000 nM, an inhibition [20] of 11.2% and an IC50 [21] of 1000 nM. The inhibition [22] was 5%, the Ki [23] was 347 nM and the pKi [23] was 6.465. It also gave an IC50 [24] of 1000 nM, an inhibition [25] of 82.2% and an IC50 [26] of 1000 nM. It also gave an IC50 [27] of 1000 nM, an inhibition [28] of 6% and an IC50 [29] of 1000 nM. The inhibition [30] was 63%, the IC50 [31] was 1000 nM and the IC50 [32] was 1000 nM. The IC50 [33] was 1000 nM, the IC50 [34] was 1000 nM and the inhibition [35] was 12%. For the same compound, the IC50 [36] was 1000 nM, the inhibition [37] was 50.6% and the inhibition [38] was 5%. For the same compound, the inhibition [39] was 33%, the IC50 [40] was 1000 nM and the Ki ([41]; read-out: Ki) was 2070 nM. For the same compound, the Ki ([41]; read-out: pKi (converted)) was 2040 nM, the IC50 [42] was 1000 nM and the IC50 [43] was 1000 nM. The IC50 [44] was 1000 nM and the IC50 [45] was 1000 nM.
